{
  "source": "patent US10471177B2",
  "about": "“Surface modified biological materials” (Orthobond Corporation, priority 2011, dated 2019)",
  "test": "Stability of gentamicin in 0.25M HCl under autoclave conditions",
  "assay_type": "physicochemical",
  "settings": "earlier studies",
  "data": [
    {"substance": "gentamicin", "values": [
      {"measurement": "loss of gentamicin detection", "value": "No significant loss"}
    ]}
  ]
}
